The test system of data set [1] is Trypanosoma brucei brucei. In words: Antitrypanosomal activity against Trypanosoma brucei brucei 427 assessed as inhibition of parasite proliferation incubated for 48 hrs by CellTiter-Glo luminescent assay. The class given is functional, organism-based. The following applies: Trypanosoma brucei, 427, 48 h.
Data set [2] in a line: Cytotoxicity against human BJ cells assessed as inhibition of cell growth incubated for 72 hrs by CellTiter-Glo luminescence assay. The format is toxicity, cell-based. (In general: In ATP-based viability assays light output follows the ATP content of the culture.)
A short description of data set [3]: Metabolic stability in […] mouse liver microsomes assessed as half-life at 20 uM measured after 2 hrs by UPLC-MS analysis. The format is ADME, Microsome.
Data set [4] can be described thus: Aqueous solubility of compound in 1-propanol at pH 7.4 incubated for 18 hrs by UV spectrum analysis. The following applies: for solubility at 18 h: 1-propanol (aqueous, pH 7.4), pH 7.4. The class given is physicochemical.
Data set [5] has as its system Trypanosoma brucei brucei. In words: Trypanocidal activity against Trypanosoma brucei brucei 427 assessed as reduction in parasitemia at 2.2 uM incubated for 4 days by clonal dilution based CellTiter-Glo assay. The format is functional, organism-based. The settings on record: time 4.0 day.
In data set [6] the test system is Trypanosoma brucei brucei. In words: Antitrypanosomal activity against Trypanosoma brucei brucei 427 assessed as inhibition of parasite proliferation at 0.7 to 15000 nM incubated for 48 hrs by CellTiter-Glo luminescent assay. The format is functional, organism-based. The following applies: dose 0.7-15000 nM.

pEC50: −log10 of the molar value. Activity calls are given as the source filed them. The rule behind the calls is not given here.

Broadly, the pEC50 is −log10 of the EC50, conventionally taken in molar units. The EC50 is the midpoint of the concentration-response curve. Take `Cc1nc(-c2cccc(NC(=O)c3cc([N+](=O)[O-])ccc3Cl)c2)sc1C`: in data set [1], the pEC50 is 5.65. The EC50 at 72 h in data set [2] was greater than 17 µM.

`O=C(Nc1cncc(-c2nc3ccccc3s2)c1)c1cc([N+](=O)[O-])ccc1Cl`: the pEC50 in data set [1] is less than 5.10. Also, the EC50 at 72 h in data set [2] is greater than 15 µM.

Take `O=C(NC1CCCC(c2nc3ccccc3s2)C1)c1cc([N+](=O)[O-])ccc1Cl` (stereo not given): the pEC50 in data set [1] is less than 5.15. Further, the concentration giving a half-maximal response (EC50) at 72 h in data set [2] was greater than 15 µM.

Turning to `Cc1ccc(-c2nc3ccccc3s2)cc1NC(=O)c1cnccc1C(F)(F)F`, the negative logarithm of the EC50 (pEC50) in data set [1] was less than 5.15. In addition, in data set [2], the half-maximal effective concentration (EC50) at 72 h was greater than 14 µM.

Take `CC(=O)Nc1ccc(Cl)c(C(=O)Nc2cc(-c3nc4ccccc4s3)ccc2C)c1`: the negative logarithm of the EC50 (pEC50) in data set [1] was less than 5.15. For the same compound, the half-maximal effective concentration (EC50) at 72 h in data set [2] was greater than 15 µM.

Consider `Cc1ccc(-c2nc3ccccc3s2)cc1NC(=O)c1cnccc1C#N`, for which the pEC50 in data set [1] was less than 5.15. In addition, the concentration giving a half-maximal response (EC50) at 72 h in data set [2] was greater than 13 µM.

With `Cc1ccc(-c2nc3ccccc3s2)cc1NC(=O)c1cc([N+](=O)[O-])ccc1O`, the pEC50 in data set [1] is less than 5.15. Further, in data set [2], the EC50 at 72 h was greater than 14 µM.

As to `C[S+]([O-])c1ccc(Cl)c(C(=O)Nc2cccc(-c3nc4ccccc4s3)c2)c1` (stereo not given), in data set [1], the pEC50 was less than 5.10. Also, the EC50 at 72 h in data set [2] was greater than 25 µM.

For orientation: half-life means how long it takes for the measured level to halve. The solubility is the concentration that dissolves in the medium under given conditions. A high value points to a readily soluble substance. For `Cc1ccc(-c2nc3ccccc3s2)cc1NC(=O)c1cc([N+](=O)[O-])ccc1Cl`, the negative-log EC50 (pEC50) in data set [1] is 7.41. Besides, the EC50 at 72 h in data set [2] was greater than 25 µM. In data set [3], the half-life at 20 µM is greater than 240 min. Also, the solubility entry in data set [4] (buffer, pH 7.4, 18 h) is given as “Insoluble(Bld)”.

With `N=C(N)c1ccc(OCCCCCOc2ccc(C(=N)N)cc2)cc1`, the result in data set [5] was Active.

For `O=C(Nc1cccc(-c2nc3ccccc3s2)n1)c1cc([N+](=O)[O-])ccc1Cl`, the pEC50 in data set [1] is less than 5.15. Further, in data set [2], the concentration for a half-maximal effect (EC50) at 72 h was greater than 15 µM.

In the case of `Cc1ccc(-c2nc3ccccc3s2)cc1NC(=O)c1cc(C(F)(F)F)ccc1Cl`, in data set [1], the pEC50 was less than 5.22. Further, the EC50 at 72 h in data set [2] is greater than 15 µM.

Turning to `Cc1ccc(-c2nc3ccccc3s2)cc1NC(=O)c1cc(C(N)=O)ccc1Cl`, the negative logarithm of the EC50 (pEC50) in data set [1] was less than 4.96. For the same compound, the EC50 at 72 h in data set [2] was greater than 22 µM.

Consider `O=C(Nc1cncc(-c2nc3ccccc3s2)c1)c1cnccc1Cl`, for which the negative-log EC50 (pEC50) in data set [1] was less than 5.30. Further, the EC50 at 72 h in data set [2] was greater than 11 µM.

Take `Cc1ccc(-c2nc3ccccc3s2)cc1NC(=O)c1cc(C#N)ccc1Cl`: the negative-log EC50 (pEC50) in data set [1] is less than 5.22. Also, the EC50 at 72 h in data set [2] was greater than 15 µM.

Regarding `COc1ccncc1C(=O)Nc1cc(-c2nc3ccccc3s2)ccc1C`, the pEC50 in data set [1] is less than 4.92. For the same compound, the EC50 at 72 h in data set [2] was greater than 21 µM.

Regarding `O=C(Nc1cccc(-c2ncc[nH]2)c1)c1cc([N+](=O)[O-])ccc1Cl`, in data set [1], the negative logarithm of the EC50 (pEC50) is less than 5.10. The concentration for a half-maximal effect (EC50) at 72 h in data set [2] is greater than 18 µM.

For `O=C(Nc1cccc(-c2nc3ccccc3s2)n1)c1cnccc1Cl`, the pEC50 in data set [1] was 7.05. The EC50 at 72 h in data set [2] was greater than 15 µM. In data set [3], the half-life at 20 µM worked out at 2 min. In addition, the solubility at 18 h in data set [4] was less than 1.56 µM.

With `Cc1ccc(-c2nc3ccccc3s2)cc1NC(=O)c1cc([N+](=O)[O-])ccc1C#N`, the pEC50 in data set [1] was less than 5.05. The EC50 at 72 h in data set [2] was greater than 17 µM.

As to `Cc1ccc(-c2nnn[nH]2)cc1NC(=O)c1cc([N+](=O)[O-])ccc1Cl`, in data set [1], the pEC50 is less than 5.10. The concentration for a half-maximal effect (EC50) at 72 h in data set [2] is greater than 18 µM.

As for `Cc1ccc(-c2nnn[nH]2)nc1NC(=O)c1cnccc1Cl`, in data set [2], the EC50 at 72 h was greater than 18 µM. In addition, in data set [6], the result was inactive.

As to `Cc1ccc(-c2nc3ccccc3s2)cc1NC(=O)c1cc(C(=O)O)ccc1Cl`, the pEC50 in data set [1] is less than 5.30. Besides, the EC50 at 72 h in data set [2] is greater than 15 µM.

Regarding `O=C(Nc1cc(-c2nc3ccccc3s2)ccc1Br)c1cc([N+](=O)[O-])ccc1Cl`, the pEC50 in data set [1] is 6.66. Also, the concentration giving a half-maximal response (EC50) at 72 h in data set [2] was greater than 20 µM. In addition, in data set [3], the half-life at 20 µM worked out at 1.7 min. The solubility at 18 h in data set [4] was less than 1.56 µM.

Turning to `CSc1ccc(Cl)c(C(=O)Nc2cccc(-c3nc4ccccc4s3)c2)c1`, in data set [1], the pEC50 is less than 4.48. Moreover, the EC50 at 72 h in data set [2] is greater than 25 µM.

Turning to `COC(=O)c1ccc(Cl)c(C(=O)Nc2cc(-c3nc4ccccc4s3)ccc2C)c1`, the pEC50 in data set [1] is less than 4.79. Further, the EC50 at 72 h in data set [2] is greater than 28 µM.

On to `Cc1ccc(-c2nc3ccccc3s2)cc1NC(=O)c1cnccc1Cl`, for which the pEC50 in data set [1] was 7.36. Also, the EC50 at 72 h in data set [2] was greater than 25 µM. Besides, in data set [3], the half-life at 20 µM is 12 min. In addition, the solubility at 18 h in data set [4] is less than 1 µM.

For the compound `Cc1ccc(-c2nc3ncccc3o2)cc1NC(=O)c1cc([N+](=O)[O-])ccc1Cl`, the pEC50 in data set [1] is 6.26. The EC50 at 72 h in data set [2] is greater than 25 µM. Also, the half-life at 20 µM in data set [3] is 1.2 min. Further, the solubility at 18 h in data set [4] is less than 1.56 µM.

As to `Cc1ccc(-c2nc3ccccc3s2)cc1NC(=O)c1cc([N+](=O)[O-])ccc1F`, in data set [1], the pEC50 was 8.40. Besides, in data set [2], the EC50 at 72 h was greater than 17 µM. Further, the half-life at 20 µM in data set [3] is 21 min. Besides, the solubility at 18 h in data set [4] was less than 1.56 µM.

On to `CS(=O)(=O)c1ccc(Cl)c(C(=O)Nc2cccc(-c3nc4ccccc4s3)c2)c1`, for which the pEC50 in data set [1] is 5.34. For the same compound, the EC50 at 72 h in data set [2] was greater than 25 µM.

On to `Cc1ccc(-c2nc3ccccc3s2)cc1NC(=O)c1cnccc1F`, for which, in data set [1], the pEC50 is less than 4.97. Moreover, in data set [2], the EC50 at 72 h was greater than 18 µM.

For `Cc1ccc(-c2nc3ccccc3s2)cc1NC(=O)c1cc(F)ccc1Cl`, the pEC50 in data set [1] is less than 5.10. Besides, the concentration for a half-maximal effect (EC50) at 72 h in data set [2] was greater than 15 µM.

Take `O=C(Nc1cccc(-c2nccs2)n1)c1cnccc1Cl`: the negative-log EC50 (pEC50) in data set [1] was less than 4.36. Also, the EC50 at 72 h in data set [2] is greater than 18 µM.

Regarding `COc1ccc([N+](=O)[O-])cc1C(=O)Nc1cc(-c2nc3ccccc3s2)ccc1C`, the pEC50 in data set [1] was less than 6.00. Also, in data set [2], the EC50 at 72 h was greater than 2 µM.

Regarding `Cc1ccc(-c2nc3ccccc3s2)cc1NC(=O)c1cc(N)ccc1Cl`, the negative logarithm of the EC50 (pEC50) in data set [1] was less than 5.30. Besides, in data set [2], the half-maximal effective concentration (EC50) at 72 h was greater than 15 µM.

For the compound `Cc1ccc(-c2nc3ccccc3s2)cc1NC(=O)c1cc([N+](=O)[O-])ccc1C(F)(F)F`, the negative-log EC50 (pEC50) in data set [1] is less than 5.15. Besides, the EC50 at 72 h in data set [2] is greater than 15 µM.

On to `Cc1ccc(-c2nc3ccccc3s2)cc1NC(=O)c1cc(NC(=O)OC(C)(C)C)ccc1Cl`, for which the pEC50 in data set [1] was less than 5.10. Further, the EC50 at 72 h in data set [2] is greater than 15 µM.

For the compound `O=C(Nc1ccc(Cl)c(-c2nc3ncccc3o2)c1)c1cc([N+](=O)[O-])ccc1Cl`, the pEC50 in data set [1] was less than 5.22. Further, the EC50 at 72 h in data set [2] was greater than 26 µM.

Regarding `O=C(Nc1cccc(-c2nc3ccccc3s2)c1)c1cc([N+](=O)[O-])ccc1Cl`, the pEC50 in data set [1] was 7.00. The EC50 at 72 h in data set [2] was greater than 15 µM. Further, the half-life at 20 µM in data set [3] worked out at 11 min. For the same compound, the solubility at 18 h in data set [4] was less than 1 µM.

In the case of `O=C(Nc1cccc(-c2ncco2)c1)c1cc([N+](=O)[O-])ccc1Cl`, in data set [1], the pEC50 was less than 5.10. Besides, in data set [2], the half-maximal effective concentration (EC50) at 72 h was greater than 18 µM.

On to `Cc1ccc(-c2nc3ccccc3s2)cc1NC(=O)c1cnccc1O`, for which, in data set [1], the negative logarithm of the EC50 (pEC50) is less than 5.10. The concentration for a half-maximal effect (EC50) at 72 h in data set [2] is greater than 14 µM.

Turning to `O=C(Nc1cccc(-c2nccs2)c1)c1cc([N+](=O)[O-])ccc1Cl`, in data set [1], the negative logarithm of the EC50 (pEC50) is less than 5.15. In addition, the EC50 at 72 h in data set [2] was greater than 18 µM.
